The results in this text go back to patent publication US20240351986A1, “UREA COMPOUND CONTAINING 2-HETEROAROMATIC RING SUBSTITUTION, PREPARATION METHOD THEREFOR AND USE THEREOF” (SHANGHAI INSTITUTE OF MATERIA MEDICA, CHINESE ACADEMY OF …, priority 2021, published 2024).

Format in all cases: biochemical
One assay concerns the target CDK4/cyclin D1 (Homo sapiens, UniProt P11802). Put plainly: CDK4 enzyme activity inhibition. Particulars: for inhibition at 0.01 µM: compound 10 nM, read-out: CDK4/Cyc D1 inhibition rate % 10 nM; for inhibition at 0.1 µM: compound 100 nM, read-out: CDK4/Cyc D1 inhibition rate % 100 nM. The procedure:
(§1) CDK1,4,6,7 enzyme (CDK1/cyclin B, CDK4/cyclin D1, CDK6/cyclin D1, CDK7/cyclin H) activity was measured using a 5 μL enzyme system (50 mM HEPES, 10 mM MgCl2, 1 mM EGTA, 2 mM DTT and 0.0100 Tween 20, appropriate enzyme) either. A mixture of 2.5 μL of compound, 2.5 µL of substrate and ATP (final concentration of substrate 50 nM, final concentration of ATP 200 μM) was incubated at room temperature in the dark for 60 minutes. Then 5 μL EDTA stop solution diluted in 1× detection buffer (final concentration 6 mM) was added to each well, then an antibody diluted in 1× detection buffer (final concentration 2 nM) was added to incubate for 1 hour at room temperature in the dark, and then the corresponding enzyme activity inhibition rate or IC50 was calculated after measurement.

The target in assay [1] is T1, Recombinant human CDK9/cyclin T1 (Homo sapiens, UniProt P50750).
T1 construct: purchased Carna bioscience 04-110
In words: CDK9 enzyme inhibitory activity (ADP-Glo kinase assay). Particulars: for inhibition at 0.01 µM: read-out: Inhibition rate at different concentrations (%) 10 nM; for inhibition at 0.1 µM: read-out: Inhibition rate at different concentrations (%) 100 nM; for IC50: Table 2, read-out: CDK9/CycT1 IC50. For orientation: In ADP-Glo the light output rises with the ADP produced.

In another assay the target is CDK7/cyclin H (Homo sapiens, UniProt P50613). In words: CDK7 enzyme activity inhibition. Particulars: for inhibition at 0.01 µM: compound 10 nM, read-out: CDK7/Cyc H inhibition rate % 10 nM; for inhibition at 0.1 µM: compound 100 nM, read-out: CDK7/Cyc H inhibition rate % 100 nM. The procedure: as §1
A further assay concerns the target CDK6/cyclin D1 (Homo sapiens, UniProt Q00534). In words: CDK6 enzyme activity inhibition. Conditions: for inhibition at 0.01 µM: compound 10 nM, read-out: CDK6/Cyc D1 inhibition rate % 10 nM; for inhibition at 0.1 µM: compound 100 nM, read-out: CDK6/Cyc D1 inhibition rate % 100 nM. The procedure:
as §1

The next assay has as its target CDK1/cyclin B (Homo sapiens, UniProt P06493). In words: CDK1 enzyme activity inhibition. Conditions: for inhibition at 0.01 µM: compound 10 nM, read-out: CDK1/Cyc B inhibition rate % 10 nM; for inhibition at 0.1 µM: compound 100 nM, read-out: CDK1/Cyc B inhibition rate % 100 nM. The procedure:
as §1

Where [2] appears, read: CDK9 enzyme activity, compound 10 nM, average of two independent repeats.
The mark [3] stands for this setting: CDK9 enzyme activity, compound 100 nM, average of two independent repeats.

T1 sequence (P50750 whole entry): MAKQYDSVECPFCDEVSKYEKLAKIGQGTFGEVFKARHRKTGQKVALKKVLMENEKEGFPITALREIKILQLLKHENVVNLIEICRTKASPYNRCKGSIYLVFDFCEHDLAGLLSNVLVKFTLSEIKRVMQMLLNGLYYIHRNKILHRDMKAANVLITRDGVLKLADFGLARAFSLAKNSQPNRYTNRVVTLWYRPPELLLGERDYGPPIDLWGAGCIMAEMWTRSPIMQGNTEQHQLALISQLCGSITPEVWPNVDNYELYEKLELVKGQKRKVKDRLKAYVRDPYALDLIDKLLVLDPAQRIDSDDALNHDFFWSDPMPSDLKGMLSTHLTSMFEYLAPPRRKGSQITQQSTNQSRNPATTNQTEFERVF
T1 sequence (O60563 whole entry partner): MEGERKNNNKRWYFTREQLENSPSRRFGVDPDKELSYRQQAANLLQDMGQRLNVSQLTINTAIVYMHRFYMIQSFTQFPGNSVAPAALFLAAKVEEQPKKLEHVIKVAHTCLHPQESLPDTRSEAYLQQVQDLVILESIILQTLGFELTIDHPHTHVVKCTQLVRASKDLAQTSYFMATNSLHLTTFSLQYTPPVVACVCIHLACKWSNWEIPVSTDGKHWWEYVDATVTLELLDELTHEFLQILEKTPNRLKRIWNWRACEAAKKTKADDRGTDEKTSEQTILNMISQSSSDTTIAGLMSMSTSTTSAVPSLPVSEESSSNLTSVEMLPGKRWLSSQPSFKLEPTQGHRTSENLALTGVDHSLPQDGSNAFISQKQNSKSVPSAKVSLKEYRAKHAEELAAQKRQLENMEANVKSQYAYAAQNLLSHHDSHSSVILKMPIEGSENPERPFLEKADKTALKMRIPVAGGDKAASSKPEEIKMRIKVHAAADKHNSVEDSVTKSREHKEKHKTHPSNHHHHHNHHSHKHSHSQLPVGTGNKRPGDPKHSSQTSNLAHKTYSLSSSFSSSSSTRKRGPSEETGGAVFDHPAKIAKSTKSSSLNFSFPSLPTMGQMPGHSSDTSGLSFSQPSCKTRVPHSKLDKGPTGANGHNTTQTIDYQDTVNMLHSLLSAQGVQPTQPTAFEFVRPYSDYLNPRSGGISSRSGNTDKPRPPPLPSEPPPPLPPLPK
Sequence of CDK6/cyclin D1 (Q00534 whole entry, species assumed): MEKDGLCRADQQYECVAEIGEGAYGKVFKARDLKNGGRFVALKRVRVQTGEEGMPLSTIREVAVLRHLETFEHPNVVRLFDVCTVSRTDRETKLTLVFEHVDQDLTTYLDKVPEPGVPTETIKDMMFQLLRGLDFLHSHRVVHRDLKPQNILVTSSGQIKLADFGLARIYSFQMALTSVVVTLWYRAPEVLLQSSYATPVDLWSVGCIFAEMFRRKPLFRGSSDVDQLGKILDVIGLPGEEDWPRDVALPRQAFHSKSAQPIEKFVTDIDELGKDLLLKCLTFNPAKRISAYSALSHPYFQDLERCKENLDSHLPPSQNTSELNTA
Sequence of CDK6/cyclin D1 (P24385 whole entry partner, species assumed): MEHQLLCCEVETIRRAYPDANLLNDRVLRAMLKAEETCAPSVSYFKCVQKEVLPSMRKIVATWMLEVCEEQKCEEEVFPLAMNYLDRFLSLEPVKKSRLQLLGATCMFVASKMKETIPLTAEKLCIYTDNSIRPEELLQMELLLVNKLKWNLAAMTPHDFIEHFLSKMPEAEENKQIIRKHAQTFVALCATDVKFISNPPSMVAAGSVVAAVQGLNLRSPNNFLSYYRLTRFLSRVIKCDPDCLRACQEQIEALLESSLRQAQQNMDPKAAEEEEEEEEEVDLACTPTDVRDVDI
Sequence of CDK4/cyclin D1 (P11802 whole entry, species assumed): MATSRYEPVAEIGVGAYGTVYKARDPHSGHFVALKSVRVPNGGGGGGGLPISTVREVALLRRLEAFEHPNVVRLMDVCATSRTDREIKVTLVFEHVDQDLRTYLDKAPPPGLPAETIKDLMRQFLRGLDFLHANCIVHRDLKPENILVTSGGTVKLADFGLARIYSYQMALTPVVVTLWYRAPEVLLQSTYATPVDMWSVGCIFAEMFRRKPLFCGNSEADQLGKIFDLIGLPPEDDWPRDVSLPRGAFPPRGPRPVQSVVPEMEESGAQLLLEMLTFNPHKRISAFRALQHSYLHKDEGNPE
Sequence of CDK4/cyclin D1 (P24385 whole entry partner, species assumed): as the sequence (P24385 whole entry partner, species assumed) above
Sequence of CDK1/cyclin B (P06493 whole entry, species assumed): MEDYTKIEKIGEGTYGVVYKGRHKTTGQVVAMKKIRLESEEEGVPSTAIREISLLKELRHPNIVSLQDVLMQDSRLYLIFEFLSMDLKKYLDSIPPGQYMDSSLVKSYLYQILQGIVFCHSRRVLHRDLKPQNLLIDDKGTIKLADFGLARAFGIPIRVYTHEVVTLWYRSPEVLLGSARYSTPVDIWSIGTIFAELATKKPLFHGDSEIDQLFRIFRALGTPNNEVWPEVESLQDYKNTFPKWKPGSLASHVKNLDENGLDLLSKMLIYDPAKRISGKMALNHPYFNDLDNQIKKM
Sequence of CDK1/cyclin B (P14635 whole entry partner, species assumed): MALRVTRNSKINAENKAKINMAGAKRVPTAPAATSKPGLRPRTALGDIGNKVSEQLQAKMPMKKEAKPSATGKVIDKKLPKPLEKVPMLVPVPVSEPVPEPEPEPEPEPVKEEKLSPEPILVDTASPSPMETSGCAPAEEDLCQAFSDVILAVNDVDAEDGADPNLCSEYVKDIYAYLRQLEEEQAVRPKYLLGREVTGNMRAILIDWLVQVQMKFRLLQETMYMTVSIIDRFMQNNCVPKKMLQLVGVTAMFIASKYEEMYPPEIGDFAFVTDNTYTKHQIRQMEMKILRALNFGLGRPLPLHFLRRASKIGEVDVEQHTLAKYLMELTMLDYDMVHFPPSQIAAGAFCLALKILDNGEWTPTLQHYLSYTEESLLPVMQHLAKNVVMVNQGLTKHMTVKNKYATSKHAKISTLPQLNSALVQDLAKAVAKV
Sequence of CDK7/cyclin H (P50613 whole entry, species assumed): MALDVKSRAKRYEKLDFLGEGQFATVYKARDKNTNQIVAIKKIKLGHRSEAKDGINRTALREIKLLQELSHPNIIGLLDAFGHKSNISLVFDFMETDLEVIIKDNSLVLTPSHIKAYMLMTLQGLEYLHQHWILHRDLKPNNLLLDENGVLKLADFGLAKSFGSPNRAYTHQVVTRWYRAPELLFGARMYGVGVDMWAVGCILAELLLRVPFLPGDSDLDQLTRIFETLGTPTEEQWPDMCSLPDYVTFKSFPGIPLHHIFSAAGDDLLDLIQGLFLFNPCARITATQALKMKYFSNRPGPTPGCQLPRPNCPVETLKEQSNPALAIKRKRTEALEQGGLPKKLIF
Sequence of CDK7/cyclin H (P51946 whole entry partner, species assumed): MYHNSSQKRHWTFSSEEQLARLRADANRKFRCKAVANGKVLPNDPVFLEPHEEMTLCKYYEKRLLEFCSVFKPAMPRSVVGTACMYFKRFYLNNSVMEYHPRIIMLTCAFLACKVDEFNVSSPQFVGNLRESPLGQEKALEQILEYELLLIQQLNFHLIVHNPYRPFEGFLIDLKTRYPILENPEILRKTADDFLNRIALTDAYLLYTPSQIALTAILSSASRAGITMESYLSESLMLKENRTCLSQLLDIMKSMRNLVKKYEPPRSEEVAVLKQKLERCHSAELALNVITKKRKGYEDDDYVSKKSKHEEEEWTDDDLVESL

`COc1cc(F)ccc1-c1ccnc(NC(=O)N[C@H]2CC[C@H](N)CC2)c1` [Example 2, 1-((1r,4r)-4-aminocyclohexyl)-3-(4-(4-fluoro-2-methoxyphenyl)pyridin-2-yl)urea]: the inhibition at 0.01 µM on CDK4/cyclin D1 is -7%; in assay [1] (setting [2]) it was 57%; on CDK7/cyclin H it was -6.6%; at CDK6/cyclin D1, 2.6%; at CDK1/cyclin B it was 1.3%. The inhibition at 0.1 µM at CDK4/cyclin D1 is 1.8%; in assay [1] (setting [3]), 88%; on CDK7/cyclin H, -3.8%; at CDK6/cyclin D1, 13.8%; at CDK1/cyclin B, 7.8%. For the same compound, the IC50 in assay [1] was 5.7 nM.
As to `CC(=O)N[C@H]1CC[C@@H](NC(=O)Nc2cc(-c3cnn4c3CC(C)(C)C4)c(Cl)cn2)CC1` [Example 67, N-((1s,4s)-4-(3-(5-chloro-4-(5,5-dimethyl-5,6-dihydro-4H-pyrrolo[1,2-b]pyrazol-3-yl)pyridin-2-yl)ureido)cyclohexyl)acetamide], the inhibition at 0.01 µM was 9.5% at CDK4/cyclin D1; 68% in assay [1] (setting [2]); -4% on CDK7/cyclin H; 4% at CDK6/cyclin D1; 4.7% at CDK1/cyclin B. The inhibition at 0.1 µM at CDK4/cyclin D1 is 18%; in assay [1] (setting [3]), 85%; at CDK7/cyclin H, 44%; on CDK6/cyclin D1 it was 19.1%; at CDK1/cyclin B, 47.4%. The IC50 in assay [1] stood at 5.3 nM.
In the case of `COCCN[C@H]1CC[C@H](NC(=O)Nc2cc(-c3ccc(F)cc3OC)ccn2)CC1` [Example 3, 1-(4-(4-fluoro-2-methoxyphenyl)pyridin-2-yl)-3-((1r,4r)-4-((2-methoxyethyl)amino)cyclohexyl) urea], the inhibition at 0.01 µM was 7.2% at CDK4/cyclin D1; 50.2% in assay [1] (setting [2]); -24.5% on CDK7/cyclin H; 9.9% at CDK6/cyclin D1; -1.9% at CDK1/cyclin B. Further, the inhibition at 0.1 µM is 25.1% at CDK4/cyclin D1; 96.7% in assay [1] (setting [3]); -2.6% at CDK7/cyclin H; 18.9% at CDK6/cyclin D1; -1.4% at CDK1/cyclin B. In addition, the IC50 in assay [1] stood at 6.2 nM.
For `COc1cc(F)ccc1-c1ccnc(NC(=O)NC2CCC(NC(C)=O)CC2)n1` (stereo not shown) [Example 41, N-((1r,4r)-4-(3-(4-(4-fluoro-2-methoxyphenyl)pyrimidin-2-yl)ureido)cyclohexyl)acetamide], the inhibition at 0.01 µM in assay [1] (setting [2]) was 38.1%. Moreover, the inhibition at 0.1 µM in assay [1] (setting [3]) was determined as 70.2%.
Turning to `CC1(C)Cc2c(-c3cc(NC(=O)NC4CCC(NC(=O)OC(C)(C)C)CC4)ncc3Cl)cnn2C1` (stereo not shown) [Example 64, tert-butyl (1s,4s)-4-(3-(5-chloro-4-(5,5-dimethyl-5,6-dihydro-4H-pyrrolo [1,2-b]pyrazol-3-yl)pyridin-2-yl)ureido)cyclohexylcarbamate], the inhibition at 0.01 µM in assay [1] (setting [2]) amounted to 28%. In assay [1] (setting [3]), the inhibition at 0.1 µM was 56%.
Taken in the same sequence, the figures for `COc1cc(F)ccc1-c1cc(NC(=O)NC2CCC(NC3CCOC3)CC2)ncc1Cl` (stereo not shown) [Example 25, 1-(5-chloro-4-(4-fluoro-2-methoxyphenyl)pyridin-2-yl)-3-((1r,4r)-4-((tetrahydrofuran-3-yl)amino)cyclohexyl)urea] were 28.7% and 61.2%.
For `COCCNCCCNC(=O)Nc1cc(-c2ccc(F)cc2OC)ccn1` [Example 34, 1-(4-(4-fluoro-2-methoxyphenyl)pyridin-2-yl)-3-(3-((2-methoxyethyl)amino)propyl)urea], in that order: 7% and 54%.
For `CC1(C)Cc2c(-c3cc(NC(=O)NC4CCC(O)CC4)ncc3Cl)cnn2C1` (stereo not shown) [Example 45, 1-(5-chloro-4-(5,5-dimethyl-5,6-dihydro-4H-pyrrolo[1,2-b]pyrazol-3-yl)pyridin-2-yl)-3-((1r,4r)-4-hydroxycyclohexyl)urea], in that order: 48.9% and 94.3%.
For `Cn1cc(-c2ccnc(NC(=O)NC3CCC(N)CC3)c2)cn1` (stereo not shown) [Example 13, 1-((1r,4r)-4-aminocyclohexyl)-3-(4-(1-methyl-1H-pyrazol-4-yl)pyridin-2-yl) urea], the inhibition at 0.01 µM in assay [1] (setting [2]) is -17.5%. Moreover, the inhibition at 0.1 µM in assay [1] (setting [3]) amounted to 72.3%.
Regarding `CC(=O)NC1CCC(NC(=O)Nc2cc(-c3cnc(C)n3C(C)C)c(Cl)cn2)CC1` (stereo not shown) [Example 85, N-((1r,4r)-4-(3-(5-chloro-4-(1-isopropyl-2-methyl-1H-imidazol-5-yl)pyridin-2-yl)ureido)cyclohexyl)acetamide], the inhibition at 0.01 µM in assay [1] (setting [2]) was 28.9%. Moreover, the inhibition at 0.1 µM in assay [1] (setting [3]) was 72%.
Taken in the same sequence, the figures for `CN(C)CC(=O)NC1CCC(NC(=O)Nc2cc(-c3cnn4c3CC(C)(C)C4)c(Cl)cn2)CC1` (stereo not shown) [Example 48, N-((1r,4r)-4-(3-(5-chloro-4-(5,5-dimethyl-5,6-dihydro-4H-pyrrolo [1,2-b]pyrazol-3-yl)pyridin-2-yl)ureido)cyclohexyl)-2-(dimethylamino)acetamide] were 54% and 74%.
Taken in the same sequence, the figures for `CC(C)c1c2cc(-c3ccnc(NC(=O)NC4CCC(N)CC4)c3)ccc2nn1C` (stereo not shown) [Example 9, 1-((1r,4r)-4-aminocyclohexyl)-3-(4-(3-isopropyl-2-methyl-2H-indazol-5-yl)pyridin-2-yl)urea] were 23% and 55.1%.
Regarding `CC1(C)Cc2c(-c3cc(NC(=O)NC4CCCNCC4)ncc3Cl)cnn2C1` (stereo not shown) [Example 69, 1-(azepan-4-yl)-3-(5-chloro-4-(5,5-dimethyl-5,6-dihydro-4H-pyrrolo[1,2-b]pyrazol-3-yl)pyridin-2-yl)urea], the inhibition at 0.01 µM in assay [1] (setting [2]) was determined as 33.8%. Also, in assay [1] (setting [3]), the inhibition at 0.1 µM was 79.5%.
As to `CC1(C)Cc2c(-c3cc(NC(=O)NC4CCC(N)CC4)ncc3Cl)cnn2C1` (stereo not shown) [Example 65, 1-((1s,4s)-4-aminocyclohexyl)-3-(5-chloro-4-(5,5-dimethyl-5,6-dihydro-4H-pyrrolo[1,2-b]pyrazol-3-yl)pyridin-2-yl)urea], the “Inhibition rate at different concentrations (%) 10 nM” value in assay [1] (CDK9 enzyme activity, compound 10 nM, average of two independent repeats, 0.01 µM) is reported as 58.0%. In assay [1] (CDK9 enzyme activity, compound 100 nM, average of two independent repeats, 0.1 µM), the “Inhibition rate at different concentrations (%) 100 nM” value was 84.0%.
Take `COc1cc(F)ccc1-c1cc(NC(=O)NC2CCC(NC(=O)CN(C)C)CC2)ncc1Cl` (stereo not shown) [Example 28, N-((1r,4r)-4-(3-(5-chloro-4-(4-fluoro-2-methoxyphenyl)pyridin-2-yl)ureido)cyclohexyl)-2-(dimethylamino)acetamide]: the inhibition at 0.01 µM in assay [1] (setting [2]) was 29.5%. In addition, the inhibition at 0.1 µM in assay [1] (setting [3]) was determined as 84.3%.
For `CC(=O)NC1CCC(NC(=O)Nc2cc(-c3cnn4c3CN(C)CC4)c(Cl)cn2)CC1` (stereo not shown) [Example 83, N-((1r,4r)-4-(3-(5-chloro-4-(5-methyl-4,5,6,7-tetrahydropyrazolo[1,5-a]pyrazin-3-yl)pyridin-2-yl)ureido)cyclohexyl)acetamide], in that order: 40.2% and 68.3%.
For the compound `CCNC1CCC(NC(=O)Nc2cc(-c3cnn4c3CC(C)(C)C4)c(Cl)cn2)CC1` (stereo not shown) [Example 59, 1-(5-chloro-4-(5,5-dimethyl-5,6-dihydro-4H-pyrrolo[1,2-b]pyrazol-3-yl)pyridin-2-yl)-3-((1r,4r)-4-(ethylamino)cyclohexyl)urea], the inhibition at 0.01 µM in assay [1] (setting [2]) worked out at 72%. For the same compound, the inhibition at 0.1 µM in assay [1] (setting [3]) came out at 62%.
